# pIC50: −log10 of the molar value.
# Target: T1, PASK (Invitrogen) (Homo sapiens, UniProt Q96RG2)
# T1 construct: IC50 Kinase Domain; purchased Invitrogen
# Assay: PAS Kinase FRET Assay
# Type: biochemical
# Conditions: PAS kinase TR-FRET assay (665 nm/615 nm), 2 hours at 25° C.; read-out: IC50 Kinase Domain
# Description: Biochemical Assay for hPASK Activity
# The aim of the FRET assay is to determine the inhibition potential of test compounds on targeted kinase. This assay platform provides a homogenous screening method for measuring kinase activity by quantitating the amount of phospho-substrate in solution following a kinase reaction.
# In the presence of kinase and ATP, the Ulight-peptide is phosphorylated and captured by an anti-phospho-substrate antibody, which brings the Eu chelate donor and Ulight acceptor dyes into close proximity.
# Titration of kinase at 1 mM ATP was achieved via the following protocol. […] The contents of the plate were incubated at RT for 1 h. The reaction was stopped by adding 5 μl of stop solution to each test well followed by mixing and incubation at RT for 10 minutes. 5 μl of detection mix (detection antibody diluted in detection buffer) was added; the contents of the plate were mixed and then incubated in the dark for 1 hour at RT. […] The results were graphed to calculate the EC50.
# Titration of ATP at the EC50 concentration of kinase to determine ATP Km,app. was performed using the following method. […] The contents of the plate were and incubated at RT for 1 h. The reaction was stopped by adding 5 μl of stop solution to each test well followed by mixing and incubation at RT for 10 minutes. […] (detection antibody diluted in detection buffer) was added; the contents of the plate were mixed and then incubated in the dark for 1 hour at RT. […] The results were graphed to calculate the EC50 as the ATP Km,app.
# Compound screening was done via the following method. 10 mM stock solution of test compound in DMSO was prepared by dissolving test compound in DMSO at RT for 1 hour, and then sonicating at 100% output for 8 minutes. If compound is not soluble under this condition, it was diluted to 3 mM. Kinase reaction buffer was prepared containing 10 mM MgCl2, 50 mM HEPES, 1 mM EGTA, 0.01% TWEEN-20, 2 mM DTT. […] As a positive control, 2.5 μl of positive compound was added to assay wells, and 2.5 μl of DMSO to assay wells as vehicle control. Kinase solution was prepared in reaction buffer at 2× final assay concentration. Kinase solution (5 μl) was added to each well of the assay plate. The substrate and ATP solution was prepared in kinase reaction buffer at 4× final assay concentration. The kinase reaction was started by adding 2.5 μl of substrate+ATP mix solution to each well of the assay plate. The plate is mixed on a plate shaker; then covered and allowed to react for 2 hours in the dark at 25° C. without shaking. The reaction was stopped by adding 5 μl of stop solution to each test well followed by mixing and incubation at RT for 10 minutes in the dark. 5 μl of detection mix (detection antibody diluted in detection buffer) was added; the contents of the plate were mixed and then incubated in the dark for 1 hour at RT.
# T1 sequence (Q96RG2 999-1251 limits assumed): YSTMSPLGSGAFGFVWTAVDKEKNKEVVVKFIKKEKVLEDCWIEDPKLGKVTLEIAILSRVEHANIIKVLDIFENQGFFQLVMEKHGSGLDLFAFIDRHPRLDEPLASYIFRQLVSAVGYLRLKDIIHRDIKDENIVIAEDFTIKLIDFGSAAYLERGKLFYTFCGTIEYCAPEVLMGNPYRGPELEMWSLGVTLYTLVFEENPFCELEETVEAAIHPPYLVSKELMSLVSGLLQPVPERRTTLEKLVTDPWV
row,Compound,pIC50
1,"CN(c1nc2cc(C(=O)O)ccc2nc1-c1ccc(F)cc1)C1CCOCC1 [Example 102, 2-(4-Fluorophenyl)-3-(methyl(tetrahydro-2H-pyran-4-yl)amino)quinoxaline-6-carboxylic acid]",> 5.00
2,"CC(C)N(C)c1nc2cc(C(=O)O)ccc2nc1-c1ccc(-c2ccc(F)cc2)o1 [Example 84, 2-[5-(4-Fluorophenyl)furan-2-yl]-3-[methyl(propan-2-yl)amino]quinoxaline-6-carboxylic acid]",> 5.00
3,"O=C(O)c1ccc2nc(-c3ccc4[nH]ccc4c3)c(N3CCCCC3)nc2c1 [Example 65, 2-(1H-Indol-5-yl)-3-(piperidin-1-yl)quinoxaline-6-carboxylic acid]",> 5.00
4,"CC(C)N(C)c1nc2cc(C(=O)O)ccc2nc1-c1coc2ccccc12 [Example 1, 2-(Benzofuran-3-yl)-3-(isopropyl(methyl)amino)quinoxaline-6-carboxylic acid]",> 5.00
5,"CC(C)N(C)c1nc2cc(C(=O)O)ccc2nc1-c1ccc2cn[nH]c2c1 [Example 4, 2-(1H-Indazol-6-yl)-3-(isopropyl(methyl)amino)quinoxaline-6-carboxylic acid]",> 5.00
6,"CC(C)N(C)c1nc2cc(C(=O)O)ccc2nc1-c1ccc2c(cnn2C)c1 [Example 25, 3-(Isopropyl(methyl)amino)-2-(1-methyl-1H-indazol-5-yl)quinoxaline-6-carboxylic acid]",> 5.00
7,"O=C(O)c1ccc2nc(-c3ccc(F)cc3)c(N3CCCC3)nc2c1 [Example 144, 2-(4-Fluorophenyl)-3-(pyrrolidin-1-yl)quinoxaline-6-carboxylic acid]",> 5.00
8,"CN(Cc1ccccc1)c1nc2cc(C(=O)O)ccc2nc1-c1ccc(F)cc1 [Example 133, 3-[Benzyl(methyl)amino]-2-(4-fluorophenyl)quinoxaline-6-carboxylic acid]",> 5.00
9,"CC(C)N(C)c1nc2cc(C(=O)O)ccc2nc1-c1occc1-c1ccccc1 [Example 83, 3-[Methyl(propan-2-yl)amino]-2-(3-phenylfuran-2-yl)quinoxaline-6-carboxylic acid]",> 5.00
10,"O=C(O)c1ccc2nc(-c3ccc(F)cc3)c(N3CCC(c4ccccn4)CC3)nc2c1 [Example 131, 2-(4-Fluorophenyl)-3-[4-(pyridin-2-yl)piperidin-1-yl]quinoxaline-6-carboxylic acid]",> 5.00
11,"CC(C)N(C)c1nc2cc(C(=O)O)ccc2nc1-c1ccc2c(c1)nnn2C [Example 95, 3-(Isopropyl(methyl)amino)-2-(1-methyl-1H-benzo[d][1,2,3]triazol-5-yl)quinoxaline-6-carboxylic acid]",< 5.00
12,"CC(C)Nc1nc2cc(C(=O)O)ccc2nc1-c1cc2ccccc2o1 [Example 70, 2-(1-Benzofuran-2-yl)-3-[(propan-2-yl)amino]quinoxaline-6-carboxylic acid]",> 5.00
13,"CC(C)N(C)c1nc2cc(C(=O)O)ccc2nc1-c1ccc(F)nc1 [Example 13, 2-(6-Fluoropyridin-3-yl)-3-(isopropyl(methyl)amino)quinoxaline-6-carboxylic acid]",> 5.00
14,"C[C@H]1CCCN1c1nc2cc(C(=O)O)ccc2nc1-c1nc2ccccc2s1 [Example 59, 2-(1,3-Benzothiazol-2-yl)-3-[(2S)-2-methylpyrrolidin-1-yl]quinoxaline-6-carboxylic acid]",> 5.00
15,"CC(C)N(C)c1nc2cc(C(=O)O)ccc2nc1-c1cnn(C)c1 [Example 90, 3-[Methyl(propan-2-yl)amino]-2-(1-methyl-1H-pyrazol-4-yl)quinoxaline-6-carboxylic acid]",> 5.00
16,"O=C(O)c1ccc2nc(-c3cc4cc(F)ccc4o3)c(N3CCCCCC3)nc2c1 [Example 39, 3-(Azepan-1-yl)-2-(5-fluorobenzofuran-2-yl)quinoxaline-6-carboxylic acid]",> 5.00
17,"CCn1ncc2cc(-c3nc4ccc(C(=O)O)cc4nc3N(C)C(C)C)ccc21 [Example 26, 2-(1-Ethyl-1H-indazol-5-yl)-3-(isopropyl(methyl)amino)quinoxaline-6-carboxylic acid]",> 5.00

row,Compound,pIC50
1,"Cc1ccccc1N(C)c1nc2cc(C(=O)O)ccc2nc1-c1ccc(F)cc1 [Example 109, 2-(4-Fluorophenyl)-3-(methyl(o-tolyl)amino)quinoxaline-6-carboxylic acid]",> 5.00
2,"CN(Cc1ccccn1)c1nc2cc(C(=O)O)ccc2nc1-c1ccc(F)cc1 [Example 134, 2-(4-Fluorophenyl)-3-[methyl(pyridin-2-ylmethyl)amino]quinoxaline-6-carboxylic acid]",> 5.00
3,"CC(C)CN(C)c1nc2cc(C(=O)O)ccc2nc1-c1ccc(F)cc1 [Example 141, 2-(4-Fluorophenyl)-3-(isobutyl(methyl)amino)quinoxaline-6-carboxylic acid]",> 5.00
4,"CN[C@H]1CC[C@H](N(C)c2nc3cc(C(=O)O)ccc3nc2-c2ccc(F)cc2)CC1 [Example 126, 2-(4-Fluorophenyl)-3-(methyl((1r,4r)-4-(methylamino)cyclohexyl)amino)quinoxaline-6-carboxylic acid]",> 5.00
5,"CC(C)N(C)c1nc2cc(C(=O)O)ccc2nc1-c1ccc(C(N)=O)cc1 [Example 119, 2-(4-Carbamoylphenyl)-3-(isopropyl(methyl)amino)quinoxaline-6-carboxylic acid]",> 5.00
6,"CN(c1nc2cc(C(=O)O)ccc2nc1-c1ccc(F)cc1)C1CCNCC1 [Example 103, 2-(4-Fluorophenyl)-3-(methyl(piperidin-4-yl)amino)quinoxaline-6-carboxylic acid]",> 5.00
7,"C[C@H]1CN(c2ccccn2)CCN1c1nc2cc(C(=O)O)ccc2nc1-c1ccc2[nH]ncc2c1 [Example 92, (S)-2-(1H-indazol-5-yl)-3-(2-methyl-4-(pyridin-2-yl)piperazin-1-yl)quinoxaline-6-carboxylic acid]",> 5.00
8,"CC(C)N(C)c1nc2cc(C(=O)O)ccc2nc1-c1cnn(-c2ccccc2)c1 [Example 91, 3-[Methyl(propan-2-yl)amino]-2-(1-phenyl-1H-pyrazol-4-yl)quinoxaline-6-carboxylic acid]",> 5.00
9,"CC(C)N(C)c1nc2cc(C(=O)O)ccc2nc1-c1ccc2ncccc2c1 [Example 46, 3-(Isopropyl(methyl)amino)-2-(quinolin-6-yl)quinoxaline-6-carboxylic acid]",> 5.00
10,"COc1ccc2[nH]c(-c3nc4ccc(C(=O)O)cc4nc3N(C)C(C)C)cc2c1 [Example 6, 3-(Isopropyl(methyl)amino)-2-(5-methoxy-1H-indol-2-yl)quinoxaline-6-carboxylic acid]",> 5.00
11,"Cc1cc(F)ccc1-c1nc2ccc(C(=O)O)cc2nc1N(C)C(C)C [Example 118, 2-(4-Fluoro-2-methylphenyl)-3-(isopropyl(methyl)amino)quinoxaline-6-carboxylic acid]",> 5.00
12,"O=C(O)c1ccc2nc(-c3ccc4[nH]ccc4c3)c(N3CCCCCC3)nc2c1 [Example 37, 3-(Azepan-1-yl)-2-(1H-indol-5-yl)quinoxaline-6-carboxylic acid]",> 5.00
13,"CN(c1nc2cc(C(=O)O)ccc2nc1-c1cc2ccc(F)cc2o1)C1CC1 [Example 49, 3-(Cyclopropyl(methyl)amino)-2-(6-fluorobenzofuran-2-yl)quinoxaline-6-carboxylic acid]",> 5.00
14,"CS(=O)(=O)N1CCN(c2nc3cc(C(=O)O)ccc3nc2-c2ccc(F)cc2)CC1 [Example 130, 2-(4-Fluorophenyl)-3-(4-(methylsulfonyl)piperazin-1-yl)quinoxaline-6-carboxylic acid]",> 5.00
15,"CC(C)N(C)c1nc2cc(C(=O)O)ccc2nc1-c1ccc2[nH]nnc2c1 [Example 94, 2-(1H-Benzo[d][1,2,3]triazol-5-yl)-3-(isopropyl(methyl)amino)quinoxaline-6-carboxylic acid]",> 5.00
16,"CC(C)(C)Nc1nc2cc(C(=O)O)ccc2nc1-c1ccc(F)cc1 [Example 110, 3-(tert-Butylamino)-2-(4-fluorophenyl)quinoxaline-6-carboxylic acid]",> 5.00
17,"CCN(CC)c1nc2cc(C(=O)O)ccc2nc1-c1ccc2[nH]ccc2c1 [Example 38, 3-(Diethylamino)-2-(1H-indol-5-yl)quinoxaline-6-carboxylic acid]",> 5.00

# Source: patent US8912188B2, “Substituted quinoxaline carboxylic acids for the inhibition of PASK” (BioEnergenix, LLC, priority 2011, dated 2014)
